Data taken from the Kinase Knowledgebase extract (Sharma et al. 2016).

molecular target: MAPK14 (human) (UniProt Q16539); test: Inhibition of MAPK14 Kinase Activity
Sequence (Q16539 whole entry, looked up): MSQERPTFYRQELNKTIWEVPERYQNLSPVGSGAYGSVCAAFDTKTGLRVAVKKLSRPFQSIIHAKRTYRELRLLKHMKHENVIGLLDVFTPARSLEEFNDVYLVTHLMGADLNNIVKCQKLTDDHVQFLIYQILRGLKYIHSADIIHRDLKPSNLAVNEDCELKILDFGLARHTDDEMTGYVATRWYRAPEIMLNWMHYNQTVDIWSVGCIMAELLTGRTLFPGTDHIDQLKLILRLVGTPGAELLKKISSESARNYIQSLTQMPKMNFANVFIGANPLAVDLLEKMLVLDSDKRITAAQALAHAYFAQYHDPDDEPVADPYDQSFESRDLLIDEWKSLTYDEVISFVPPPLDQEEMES

CC(C)n1c(CCCCO)nc(OCc2ccc(F)cc2F)c(Br)c1=O and CC(C)n1c(CCCCO)nc(OCc2ccc(F)cc2F)c(Cl)c1=O are within 1.5-fold of each other in IC50: 239 nM for the first, 181 nM for the second.

First: CC(C)n1c(NCCNS(C)(=O)=O)nc(OCc2ccc(F)cc2F)c(Br)c1=O
Second: CC(C)n1c(NCCNS(C)(=O)=O)nc(OCc2ccc(F)cc2F)c(Cl)c1=O
The IC50 of the first is 13-fold lower: 1.7 nM for the first, 22.3 nM for the second. The first is the more potent here.

CC(C)n1c(-c2ccc(C(N)=O)cc2)nc(OCc2ccc(F)cc2F)cc1=O and CC(C)n1c(-c2ccc(C(N)=O)cc2)nc(OCc2ccc(F)cc2F)c(Cl)c1=O are within 1.5-fold of each other in IC50: 260 nM for the first, 328 nM for the second.

Going from CC(C)n1c(N2CC[C@@H](N)C2)nc(OCc2ccc(F)cc2F)c(Cl)c1=O to CC(C)n1c(N2CC[C@@H](N)C2)nc(OCc2ccc(F)cc2F)c(Br)c1=O, the IC50 falls from 497 nM to 69.6 nM (7.1-fold).

Compared with CC(C)n1c(N2CCN(CC(N)=O)CC2)nc(OCc2ccc(F)cc2F)c(Br)c1=O, CC(C)n1c(N2CC[C@H](N)C2)nc(OCc2ccc(F)cc2F)c(Br)c1=O is 3.3-fold higher in IC50: 251 nM for the first, 818 nM for the second. The first is the more potent here.

First: CC(C)n1c(N2CC[C@H](NC(=O)CO)C2)nc(OCc2ccc(F)cc2F)c(Cl)c1=O
Second: CC(C)n1c(N2CC[C@@H](NC(=O)CO)C2)nc(OCc2ccc(F)cc2F)c(Cl)c1=O
The IC50 of the first is 2.2-fold higher: 813 nM for the first, 372 nM for the second. The second is the more potent here.

CC(C)n1c(NCCNC(=O)CO)nc(OCc2ccc(F)cc2F)c(Br)c1=O and CC(=O)NCCCNc1nc(OCc2ccc(F)cc2F)c(Br)c(=O)n1C(C)C are within 1.5-fold of each other in IC50: 14.2 nM for the first, 13 nM for the second.

Going from Cn1c(NCC(N)=O)nc(OCc2ccc(F)cc2F)c(Br)c1=O to CC(C)n1c(CCCC(N)=O)nc(OCc2ccc(F)cc2F)c(Br)c1=O, the IC50 falls from 954 nM to 391 nM (2.4-fold).

Going from COC(=O)c1ccc(CNc2nc(OCc3ccc(F)cc3F)c(Br)c(=O)n2C(C)C)cc1 to CC(C)n1c(NCc2ccc(F)cc2)nc(OCc2ccc(F)cc2F)c(Br)c1=O, the IC50 falls from 637 nM to 29.9 nM (21-fold). The second is the more potent here.

First: CC(C)n1c(OCCNC(N)=O)nc(OCc2ccc(F)cc2F)c(Br)c1=O
Second: CNC(=O)NCCOc1nc(OCc2ccc(F)cc2F)c(Cl)c(=O)n1C(C)C
The IC50 of the first is 96-fold lower: 2.6 nM for the first, 249 nM for the second. The first is the more potent here.

Going from CCNC(=O)NCc1cc(F)ccc1COc1nc(C)n(C(C)C)c(=O)c1Cl to CC(C)n1c(N(C)CC(N)=O)nc(OCc2ccc(F)cc2F)c(Cl)c1=O, the IC50 rises from 380 nM to 1680 nM (4.4-fold).

Going from CC(C)n1c(N2CC[C@@H](NC(=O)C(C)(C)O)C2)nc(OCc2ccc(F)cc2F)c(Cl)c1=O to CSc1cc(OCc2ccc(F)cc2F)c(Br)c(=O)n1C(C)C, the IC50 falls from 484 nM to 230 nM (2.1-fold).

CC(C)n1c(CCCCO)nc(OCc2ccc(F)cc2F)c(Br)c1=O and CC(C)n1c(CCCCO)nc(OCc2ccc(F)cc2F)c(Cl)c1=O are within 1.5-fold of each other in Ki: 114 nM for the first, 90.5 nM for the second.

Going from CC(C)n1c(NCCNS(C)(=O)=O)nc(OCc2ccc(F)cc2F)c(Br)c1=O to CC(C)n1c(NCCNS(C)(=O)=O)nc(OCc2ccc(F)cc2F)c(Cl)c1=O, the Ki rises from 0.205 nM to 10.3 nM (50-fold). The first binds more tightly here.

CC(C)n1c(-c2ccc(C(N)=O)cc2)nc(OCc2ccc(F)cc2F)cc1=O and CC(C)n1c(-c2ccc(C(N)=O)cc2)nc(OCc2ccc(F)cc2F)c(Cl)c1=O are within 1.5-fold of each other in Ki: 144 nM for the first, 181 nM for the second.

Compared with CC(C)n1c(N2CC[C@@H](N)C2)nc(OCc2ccc(F)cc2F)c(Cl)c1=O, CC(C)n1c(N2CC[C@@H](N)C2)nc(OCc2ccc(F)cc2F)c(Br)c1=O is 8.8-fold lower in Ki: 319 nM for the first, 36.3 nM for the second.

First: CC(C)n1c(N2CCN(CC(N)=O)CC2)nc(OCc2ccc(F)cc2F)c(Br)c1=O
Second: CC(C)n1c(N2CC[C@H](N)C2)nc(OCc2ccc(F)cc2F)c(Br)c1=O
The Ki of the first is 4.2-fold lower: 104 nM for the first, 435 nM for the second.

Going from CC(C)n1c(N2CC[C@H](NC(=O)CO)C2)nc(OCc2ccc(F)cc2F)c(Cl)c1=O to CC(C)n1c(N2CC[C@@H](NC(=O)CO)C2)nc(OCc2ccc(F)cc2F)c(Cl)c1=O, the Ki falls from 522 nM to 238 nM (2.2-fold).

CC(C)n1c(NCCNC(=O)CO)nc(OCc2ccc(F)cc2F)c(Br)c1=O and CC(=O)NCCCNc1nc(OCc2ccc(F)cc2F)c(Br)c(=O)n1C(C)C are within 1.5-fold of each other in Ki: 6.58 nM for the first, 6.62 nM for the second.

Compared with Cn1c(NCC(N)=O)nc(OCc2ccc(F)cc2F)c(Br)c1=O, CC(C)n1c(CCCC(N)=O)nc(OCc2ccc(F)cc2F)c(Br)c1=O is 2.9-fold lower in Ki: 532 nM for the first, 181 nM for the second. The second binds more tightly here.

First: COC(=O)c1ccc(CNc2nc(OCc3ccc(F)cc3F)c(Br)c(=O)n2C(C)C)cc1
Second: CC(C)n1c(NCc2ccc(F)cc2)nc(OCc2ccc(F)cc2F)c(Br)c1=O
The Ki of the first is 22-fold higher: 304 nM for the first, 13.7 nM for the second.

Compared with CC(C)n1c(OCCNC(N)=O)nc(OCc2ccc(F)cc2F)c(Br)c1=O, CNC(=O)NCCOc1nc(OCc2ccc(F)cc2F)c(Cl)c(=O)n1C(C)C is 170-fold higher in Ki: 0.713 nM for the first, 123 nM for the second.

First: CCNC(=O)NCc1cc(F)ccc1COc1nc(C)n(C(C)C)c(=O)c1Cl
Second: CC(C)n1c(N(C)CC(N)=O)nc(OCc2ccc(F)cc2F)c(Cl)c1=O
The Ki of the first is 4.4-fold lower: 174 nM for the first, 774 nM for the second. The first binds more tightly here.

First: CC(C)n1c(N2CC[C@@H](NC(=O)C(C)(C)O)C2)nc(OCc2ccc(F)cc2F)c(Cl)c1=O
Second: CSc1cc(OCc2ccc(F)cc2F)c(Br)c(=O)n1C(C)C
The Ki of the first is 2.6-fold higher: 310 nM for the first, 119 nM for the second.
